Read-outs that look alike come from different tables or passages of the source.
Experiments:
[1] = tested on: βFGF induced corneal neovascularization; details: for median inhibition of the area of vascularized cornea: day 8, percent of median control
Procedure: Pellets for implantation into rabbit corneas were made by mixing 110 μl of saline containing 12 μg of recombinant βFGF (Takeda Pharmaceuticals-Japan) with 40 mg of sucralfate (Bukh Meditec-Denmark); this suspension was added to 80 μl of 12% hydron (Interferon Sciences) in ethanol. 10 μl aliquots of this mixture was then pipetted onto teflon pegs and allowed to dry producing approximately 17 pellets. A pellet was implanted into corneal micropockets of each eye of an anesthetized female New Zealand white rabbit, 2 mm from the limbus followed by topical application of erythromycin ointment onto the surface of the cornea. The animals were fed daily from 2 days post-implantation by gastric lavage with either drug suspended in 0.5% carboxymethyl cellulose or 0.5% carboxymethyl cellulose alone. Thalidomide was purchased from Andrulus Pharmaceutical (Maryland) and the EM-12 and Supidimide were kindly provided by Grunenthal GMBH (Germany). The animals were examined with a slit lamp every other day in a masked manner by the same corneal specialist. The area of corneal neovascularization was determined by measuring with a reticule the vessel length (L) from the limbus and the number of clock hours (C) of limbus involved. A formula was used to determine the area of a circular band segment: C/12*3.1416 [r^2−(r−L)^2] where r=6 mm the measured radius of the rabbit cornea.
Pellets containing βFGF and sucralfate were implanted into micropockets of both corneas of rabbits according to Example II. […] The area of corneal neovascularization was measured from day 4 through day 12. Day 8 measurements were used for comparison between groups. […] Statistical analysis was performed with ANOVA with ranked data to account for interexperimental variation and to guard against a non-normal distribution of data (i.e. outliers) by utilizing a nonparametric method.

[2] = Stability compared with thalidomide; type: physicochemical
B16-BL6 melanoma cells = experiment: B16-BL6 melanoma pulmonary metastasis model; type: in vivo, C57B1/6 mice
Procedure: (§1) B16-BL6 melanoma cells (5×10^4) were injected intravenously into the tail veins of C57B1/6 mice. Three days later, the mice were treated intraperitoneally with increasing doses of thalidomide or 2-phthalimidinoglutaric acid (EM-138) on alternate days. Fourteen days after tumor cell inoculation, the lungs were removed from the mice and the surface pulmonary metastases were counted.
as §1, with “orally” for “intraperitoneally”
B16-BL6 melanoma cells (5×10^4) were injected intravenously into the tail veins of C57B1/6 mice. Three days later, the mice received a gavage treatment with 0.8 mmol/kg of 2-phthalimidinoglutaric acid (EM-138). The mice received either a single treatment, five treatments on alternate days, or one treatement every day for eleven days. Fourteen days after tumor cell inoculation, the lungs were removed from the mice and the surface pulmonary metastases were counted.
B16-BL6 melanoma cells (5×10^4) were injected intravenously into the tail veins of C57B1/6 mice. Three days later, treatment began. The mice received intraperitoneal injections of thalidomide (0.4 mmol/kg), thalidomide (3.0 mmol/kg) or 2-phthalimidinoglutaric acid (EM-138) (0.4 mmol/kg) every day. Fourteen days after tumor cell inoculation, the lungs were removed from the mice and the surface pulmonary metastases were counted.

Crohn's disease = experiment: Treatment of a patient with Crohn's disease; type: in vivo, human; details: 100 mg twice a day orally, one week
Procedure: A patient with Crohn's disease was treated using the methods of the present invention. […] Thalidomide was orally administered to them at a dosage of 100 mg twice a day.

[3] = 0.4 mmol/kg intraperitoneal every day from day 3, lungs day 14

## O=C1CCC(N2Cc3ccccc3C2=O)C(=O)N1 (stereo not shown) [EM-12]
[1]; 100 mg/kg/day
  inhibition in rabbit cornea assay: 21%
[1]; 200 mg/kg orally
  median inhibition of the area of vascularized cornea: 42%
[1]; 200 mg/kg/day
  inhibition in rabbit cornea assay: 43%

## O=C(O)CCC(C(=O)O)N1Cc2ccccc2C1=O (stereo not shown) [EM-138, 2-phthalimidinoglutaric acid]
[2]
  stability relative to thalidomide: more stable than thalidomide
B16-BL6 melanoma cells; [3]
  T/C, ratio of lung metastases of treated vs. control animals: 0.2
  reduction of pulmonary metastases: 80%
B16-BL6 melanoma cells; 0.8 mmol/kg/day
  inhibition of B16-BL6 metastasis: over 90%
B16-BL6 melanoma cells; single administration
  inhibition of metastasis after a single administration: significantly inhibits metastasis

## O=C1NCCCC1N1C(=O)c2ccccc2S1(=O)=O (stereo not shown) [Supidimide]
[1]; 200 mg/kg orally
  activity in the rabbit cornea assay (in words): no activity
[1]; 200 mg/kg orally, day 8
  area of corneal neovascularization, % of control: 107 % of control

## O=C1CCC(N2C(=O)c3ccccc3C2=O)C(=O)N1 (stereo not shown) [thalidomide]
B16-BL6 melanoma cells; 0.4 mmol/kg intraperitoneal every day
  inhibition of pulmonary metastases (in words): minimal inhibition
B16-BL6 melanoma cells; [3]
  T/C, ratio of lung metastases of treated vs. control animals: 0.9
B16-BL6 melanoma cells; 3.0 mmol/kg intraperitoneal every day
  inhibition of pulmonary metastases (in words): inhibited metastases
[1]; 200 mg/kg orally
  density of vessel ingrowth: markedly reduced
  median inhibition of the area of vascularized cornea: 36%
[1]; 200 mg/kg orally (FIG. 7)
  onset of inhibition of angiogenesis: seen after only two doses
[1]; 200 mg/kg orally, begun day 2, day 8 measurements
  inhibition of the area of vascularized cornea, range in three experiments: 30-51%
Crohn's disease
  gastrointestinal symptoms, including diarrhea and cramping: lessened
  skin lesion on the lower leg: resolved
